Measured values taken from publication PMC10531095, “Photonics of Some Monomethine Cyanine Dyes in Solutions and in Complexes with Biomolecules” (International Journal of Molecular Sciences, 2023).

Columns and labels:
[1] = tested on: dsDNA; assay: Flash photolysis: triplet state of MCD in the presence of dsDNA; design: species or system chick; details: for k1, decay rate constant of the T state (first exponent) / k2, decay rate constant of the T state (second exponent): two-exponential decay
Text: Upon direct flash photoexcitation of deoxygenated solutions of MCD 1–4, signals corresponding to triplet–triplet (T–T) absorption were not observed due to the low efficiency of intersystem crossing to the triplet (T) state, in comparison with competing processes of nonradiative deactivation of excited states of dye molecules, which is common for MCD [41]. Complexation with dsDNA hinders these competing processes, which leads to an increase in the quantum yield of the T state of MCD. In the presence of dsDNA, under direct photoexcitation, the signals of T states of MCD 1–3 were detected, and their different T–T absorption spectra were measured (Figure 10).
Quantum yields of intersystem crossing to the triplet state (ΦST) of MCD 1–3 in the presence of dsDNA were estimated by flash photolysis using optical actinometry (see Materials and Methods). The obtained values of ΦST for MCD 1–3 were 2.6 ± 0.4%, 5.7 ± 0.8%, and 10.7 ± 1.5%, respectively.
The spectral–kinetic characteristics of the T state of MCD were studied by flash photolysis. The experiment was carried out on a setup with excitation by a xenon lamp (lamp flash energy ~50 J, duration τ1/2 = 10 μs). When registering T states, the solutions were deoxygenated using a vacuum setup. The manometric unit was used to determine the air pressure in a series of experiments on T state quenching by dissolved oxygen. The T state of MCD 4 in PBS solution in the presence of dsDNA was obtained by energy transfer from the triplet level of sodium naphthalene-2-sulfonate (ET~21,000 cm^−1 [83]). The quantum yields of T states (ΦT) of the dyes in the presence of dsDNA were estimated actinometrically. Dyes with known ΦT were used as actinometers: the xanthene dye Acid Red 87 (ΦT = 0.8 (aq); [84]) and the cyanine dye 3,3′-diethyl-9-methoxythiacarbocyanine iodide (ΦT = 0.16–0.20 in n-propanol; [85]).

[2] = target: T1, HSA (Homo sapiens, UniProt P02768); assay: FRET parameters between HSA donor fluorophores and MCD acceptors; format: binding; details: MCD acceptor
T1 construct: purchased Sigma-Aldrich
T1 sequence (P02768 25-609): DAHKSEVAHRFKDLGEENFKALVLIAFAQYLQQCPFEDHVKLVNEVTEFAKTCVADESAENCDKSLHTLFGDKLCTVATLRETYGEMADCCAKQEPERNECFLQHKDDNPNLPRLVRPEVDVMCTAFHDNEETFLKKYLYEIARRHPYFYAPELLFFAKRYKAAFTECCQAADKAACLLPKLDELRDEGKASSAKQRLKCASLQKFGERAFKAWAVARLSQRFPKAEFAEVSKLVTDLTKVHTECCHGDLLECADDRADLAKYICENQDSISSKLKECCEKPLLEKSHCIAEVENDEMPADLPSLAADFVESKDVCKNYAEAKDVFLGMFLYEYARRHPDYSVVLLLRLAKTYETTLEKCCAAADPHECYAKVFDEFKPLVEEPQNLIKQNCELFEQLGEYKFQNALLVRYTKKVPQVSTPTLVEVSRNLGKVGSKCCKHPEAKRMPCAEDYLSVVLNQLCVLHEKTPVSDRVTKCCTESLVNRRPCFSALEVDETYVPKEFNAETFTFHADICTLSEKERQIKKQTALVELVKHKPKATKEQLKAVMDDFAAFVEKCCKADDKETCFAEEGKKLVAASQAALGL
Text: Quenching of intrinsic fluorescence of HSA can occur, in particular, due to energy transfer (Förster resonance energy transfer, FRET) from protein donor fluorophores to MCD acceptor molecules. In the MCD–HSA system, complexation brings acceptors and donors closer together and facilitates FRET. FRET is likely because HSA fluorescence and MCD absorption spectra overlap. For MCD and HSA, the overlap integrals J (see Equation (S7) in Supplementary Materials) were obtained in the order of 2.0–7.0 × 10^15 mol^−1 cm^−1 nm^4 (for MCD 4 see Figure S15 in Supplementary Materials). […] This is probably due to the strong aggregation of MCD 3 in the presence of HSA, which decreases the concentration of monomeric dye molecules active in fluorescence quenching (see Supplementary Materials, Figure S8). […] But as the dye concentration increases, its aggregation is built up steeply, and the fluorescence quenching diminishes.
The parameters of FRET between albumin donor chromophores (tyrosine and tryptophan amino acid residues of HSA) and acceptors (MCD 1–4 molecules) were determined from the spectral fluorescent data using the standard formulae for the spectral overlap integral J (M^−1 cm^−1 nm^4) and critical radius of energy transfer R0 (see Supplementary Material, Equations (S7) and (S8), respectively). […]

Row | SMILES | k1, decay rate constant of the T state (first exponent) [1] | k2, decay rate constant of the T state (second exponent) [1] | kqO2, rate constant of triplet state quenching by dissolved oxygen ([1]; main (short-lived) component) [M⁻¹ s⁻¹] | R0, Förster critical radius [2] | τT, lifetime of the T state [1]
1 | CC[N+](CC)(CC)CCC[n+]1ccc(/C=C2\Sc3ccccc3N2C)c2ccc(O)cc21 [MCD 1] | ~ 9.9 × 10^3 s^−1 | ~2000 s⁻¹ |  |  | 
2 | CCN1/C(=C/c2sc3ccccc3[n+]2CC)Sc2ccccc21 [MCD 3] | ~ 1.3 × 10^4 s^−1 | ~ 4 × 10^3 s^−1 | 3.6e+08 | ~ 50 Å | 
3 | CCN1/C(=C/c2ccc3ccccc3[n+]2CC)C=Cc2ccccc21 [MCD 4] |  |  |  |  | ~ 0.03 ms
